Here are results for 11 molecules from US20260116921A1, “PEPTIDE INHIBITORS OF INTERLEUKIN-23 RECEPTOR AND THEIR USE TO TREAT INFLAMMATORY DISEASES” (priority 2018, published 2026).

Data set [1] in a line: in vitro. The note with it: cynomolgus monkey, 20% fecal homogenate (supernatant), anaerobic, pH 6.8.
Description: Fecal homogenate (20%) was prepared by adding 4 mL of growth medium (1 liter contains 2 g peptone water powder, 2 g yeast extract, 0.1 g NaCl, 0.04 g KH2PO4, 0.01 g CaCl2·6H2O, 0.01 g MgSO4·7H2O, 2 mL Tween 80, 0.5 g bile salts, 0.5 g L-cysteine HCl, 2 g NaHCO3, and 10 μL Vitamin K, pH adjusted to 6.8, and sterilized by filtration through a 0.22 μm filter) to every gram of feces (pooled freshly collected human or cynomolgus monkey feces). The suspension was vortexed to break up large clumps, and homogenized using a bead mill homogenizer. Centrifuged the homogenate at 2800×g for 15 min. The supernatant is taken out and used for incubations. DMSO stocks (10 mM) were first prepared for the test compounds. Incubations were performed in an anaerobic chamber conditioned at 37° C. Aliquots of the DMSO solutions were dosed into 1.0 mL aliquots of 20% fecal homogenate, which are pre-warmed to 37° C. The final test compound concentration was 20 μM. At each timepoint (0, 20 min, 1, 3, 6, or 24 hours), 100 μL aliquot of each incubation mixture is taken out and added to separate tubes containing 300 μL of 50% acetonitrile/50% methanol and an internal standard to terminate the reaction. Samples were taken out of the anaerobic chamber and stored at 4° C. until the end of the experiment. After the final timepoint is sampled, the tubes were mixed and then centrifuged at 3,000 rpm for 10 minutes. Aliquots of the supernatant were removed, diluted 1:1 into distilled water containing 0.1% formic acid, and analyzed by LC/MS/MS. Percent remaining at each timepoint was calculated based on the peak area response ratio of test to compound to internal standard. Time 0 was set to 100%, and all later timepoints were calculated relative to time 0. Half-lives were calculated by fitting to a first-order exponential decay equation using Graphpad or Excel.
Data set [2] is described as follows: in vitro. The class given is in vitro ADME. Details: half-life: dose or concentration left out as unconfirmed. The note with it: pH 6.8, 37° C., § matrix is 100 fold dilution of standard SIF concentration; for SIF t½: simulated intestinal fluid, pancreatin; for half-life: simulated intestinal fluid (SIF) with pancreatin, read-out: SIF t½ (converted).
Description: SIF was prepared by adding 6.8 g of monobasic potassium phosphate and 10.0 g of pancreatin to 1.0 L of water. After dissolution, the pH was adjusted to 6.8 using NaOH. DMSO stocks (2 mM) were first prepared for the test compounds. Aliquots of the DMSO solutions were dosed into 6 individual tubes, each containing 0.5 mL of SIF, which is pre-warmed to 37° C. The final test compound concentration was 20 M. The vials were kept in a benchtop Thermomixer® for the duration of the experiment. At each timepoint (0, 5, 10, 20, 40, 60, or 360 minutes or 24 hours), 1.0 mL of acetonitrile containing 1% formic acid was added to one vial to terminate the reaction. Samples were stored at 4° C. until the end of the experiment. After the final timepoint is sampled, the tubes were mixed and then centrifuged at 3,000 rpm for 10 minutes. Aliquots of the supernatant were removed, diluted 1:1 into distilled water containing internal standard, and analyzed by LCMS/MS. Percent remaining at each timepoint was calculated based on the peak area response ratio of test to compound to internal standard. Time 0 was set to 100%, and all later timepoints were calculated relative to time 0. Half-lives were calculated by fitting to a first-order exponential decay equation using Graphpad.
Data set [3] can be described thus: Stability in simulated gastric fluid (SGF). Format: in vitro ADME. Conditions: pH=2, 37° C., 20 μM peptide; for half-life at 20 μM: pig (pepsin), simulated gastric fluid (SGF) with porcine pepsin, read-out: SGF t½ (converted); for SGF t½: porcine pepsin.
Description: SGF was prepared by adding 20 mg NaCl, 32 mg porcine pepsin (MP Biochemicals, catalog 02102599), and 70 μl HCl to 10 ml water (final pH=2). Aliquots of SGF (0.5 ml each) were pre-warmed at 37° C. To start the reaction, 1 μl of peptide stock solution (10 mM in DMSO) was added to 0.5 ml SGF and thoroughly mixed such that the final peptide concentration was 20 μM. The reactions were incubated at 37° C. with gentle shaking. At each time point (0, 15, 30, 60 min) 50 μl aliquots were removed and added to 200 ul acetonitrile containing 0.1% formic acid to quench the reaction. Samples are stored at 4° C. until the end of the experiment and centrifuged at 10,000 rpm for 5 minutes. Aliquots of the supernatant were removed, diluted 1:1 into distilled water containing internal standard, and analyzed by LCMS/MS. Percent remaining at each timepoint was calculated based on the peak area response ratio of test to compound to internal standard. Time 0 was set to 100%, and all later timepoints were calculated relative to time 0. Half-lives were calculated by fitting to a first-order exponential decay equation using GraphPad.
Data set [4] is described as follows: in vitro. The note with it: human, 20% fecal homogenate (supernatant), anaerobic, pH 6.8.
Data set [5] has as its target T1, IL-23R (Homo sapiens, UniProt Q5VWK5).
T1 sequence (Q5VWK5 24-629): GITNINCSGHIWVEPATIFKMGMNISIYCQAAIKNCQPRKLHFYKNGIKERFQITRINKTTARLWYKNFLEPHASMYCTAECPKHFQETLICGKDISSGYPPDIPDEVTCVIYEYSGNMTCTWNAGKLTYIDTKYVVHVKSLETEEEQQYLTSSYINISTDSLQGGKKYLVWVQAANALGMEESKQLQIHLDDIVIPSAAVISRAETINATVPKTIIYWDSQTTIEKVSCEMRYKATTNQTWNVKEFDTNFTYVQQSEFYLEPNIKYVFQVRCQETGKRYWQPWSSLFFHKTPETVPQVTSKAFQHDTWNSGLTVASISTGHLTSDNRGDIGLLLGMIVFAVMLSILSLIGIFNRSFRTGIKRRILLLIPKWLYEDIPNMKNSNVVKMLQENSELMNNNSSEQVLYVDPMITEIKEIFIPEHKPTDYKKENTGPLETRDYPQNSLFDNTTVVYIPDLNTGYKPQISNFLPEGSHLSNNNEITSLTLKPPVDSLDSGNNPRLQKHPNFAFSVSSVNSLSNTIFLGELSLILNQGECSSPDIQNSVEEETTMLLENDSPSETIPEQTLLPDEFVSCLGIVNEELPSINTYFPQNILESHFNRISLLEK
Put plainly: DB cells IL23R pSTAT3 cell assay (pStat3 HTRF). The class given is cell-based. Put shortly:
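HTRF readout of lysate pSTAT3 (Tyr705) after two-plate processing. Peptide dilution series co-incubated with IL-23 (0.5 nM final) on 5×10E5 IL-23R-expressing DB cells per well, 30 min, 37 °C.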
(In general: TR-FRET usually uses a lanthanide donor and a delayed reading to cut background.)

Data set [6] can be described thus: in vitro. The note with it: both, SD, rat, plasma (EDTA).
Data set [7] deals with NK cells. Put plainly: NK cell based assay (IL-23/IL-18-induced IFNγ, Quantikine ELISA). Conditions: human primary NK cells, IL-23 at EC50 to EC75 + IL-18 10 ng/mL, IFNγ after 20 to 24 hours. As for the experimental part: killer (NK) cells, purified from human peripheral blood of healthy donors by negative selection (Miltenyi Biotech, Cat #130-092-657), were cultured in complete media (RPMI 1640 containing […], L-glutamine and penicillin-streptomycin) in the presence of IL-2 (RnD, Cat #202-IL-010/CF) at 25 ng/mL. After 7 days, cells were centrifuged, and resuspended in complete media at IE6 cells/mL. […] After 20 to 24 hours, IFNγ in the supernatant was quantified using Quantikine ELISA (RnD, Cat #DIF50).
Background: An ELISA detects its analyte on a solid surface through an enzyme-linked reagent.

Setting [8] is: Table E3, DB cells, IL-23 0.5 nM, 30 minutes at 37° C., read-out: pStat3 HTRF (IC50).

Molecules are shown by their SMILES. Like-named read-outs stand apart in the source and are kept apart here. Where only a bound is given, the exact number is not on record here.

On to `CC(=O)N[C@H]1CCSC[C@@H](C(=O)N[C@@H](Cc2ccc(OCCN)cc2)C(=O)N[C@@H](Cc2ccc3ccccc3c2)C(=O)NC2(C(=O)N[C@@H](CCC(=O)O)C(=O)N[C@@H](CC(N)=O)C(=O)N[C@@H](CC(N)=O)C(N)=O)CCOCC2)NC(=O)[C@H](CCC(N)=O)NC(=O)[C@H](Cc2c[nH]c3c(C)cccc23)NC(=O)[C@H]([C@@H](C)O)NC(=O)[C@H](CCC(N)=O)NC1=O` [compound 28], for which the results for the half-life at 20 μM in data set [1], in data set [3] and in data set [4] were 5 h, 3 h and 1 h, respectively. The “SIF t½” value in data set [2] was 24 h. This molecule also had an IC50 in data set [5] below 1 nM.

As for `CC(=O)NCCCC[C@H](NC(=O)C1(NC(=O)[C@H](Cc2ccc3ccccc3c2)NC(=O)[C@H](Cc2ccc(OCCN)cc2)NC(=O)[C@@H]2CSCC[C@H](NC(=O)[C@@H](CCCNC(=N)N)NC(C)=O)C(=O)N[C@@H](CCC(N)=O)C(=O)N[C@@H]([C@@H](C)O)C(=O)N[C@@H](Cc3c[nH]c4c(C)cccc34)C(=O)N[C@@H](CCC(N)=O)C(=O)N2)CCOCC1)C(=O)N[C@@H](CC(N)=O)C(=O)N[C@@H](CC(N)=O)C(N)=O` [compound 29], the half-life at 20 μM in data set [6] was 3 h; in data set [3] it was 1 h. Also, in data set [2], the half-life was 21 h. This molecule also yielded an IC50 in data set [5] below 1 nM.

Take `CC(=O)NCCCC[C@H](NC(=O)[C@](C)(CC(C)C)NC(=O)[C@H](Cc1ccc2ccccc2c1)NC(=O)[C@H](Cc1ccc(OCCN)cc1)NC(=O)[C@H]1NC(=O)[C@H](CCC(N)=O)NC(=O)[C@H](Cc2c[nH]c3c(F)cccc23)NC(=O)[C@H]([C@@H](C)O)NC(=O)[C@H](CC(N)=O)NC(=O)[C@@H](NC(C)=O)C(C)(C)SSC1(C)C)C(=O)N[C@@H](CC(N)=O)C(=O)N[C@@H](CC(N)=O)C(N)=O` [compound 8]: in data set [2], the “SIF t½” value is 24 h. The half-life at 20 μM in data set [3] was 15 h. In data set [5], this molecule yielded a 50% inhibitory concentration (IC50) of 10 to 100 nM.

As for `CC(=O)NCCCC[C@H](NC(=O)[C@](C)(CC(C)C)NC(=O)[C@H](Cc1c[nH]c2cc(Cl)ccc12)NC(=O)[C@H](Cc1ccc(OCCN)cc1)NC(=O)[C@H]1NC(=O)[C@H](CCC(N)=O)NC(=O)[C@H](Cc2c[nH]c3ccccc23)NC(=O)[C@H]([C@@H](C)O)NC(=O)[C@H](CC(N)=O)NC(=O)[C@@H](NC(C)=O)C(C)(C)SSC1(C)C)C(=O)N[C@@H](CC(N)=O)C(=O)N[C@@H](CC(N)=O)C(N)=O` [compound 13], the half-life in data set [2] is 17 h. The “SGF t½” value in data set [3] is 24 h. This molecule also showed a half-maximal inhibitory concentration (IC50) in data set [5] of 1 to 10 nM.

Take `COc1cccc2[nH]cc(C[C@@H]3NC(=O)[C@H]([C@@H](C)O)NC(=O)[C@H](CC(N)=O)NC(=O)[C@@H](NC(C)=O)C(C)(C)SSC(C)(C)[C@@H](C(=O)N[C@@H](Cc4ccc(OCCN)cc4)C(=O)N[C@@H](Cc4ccc5ccccc5c4)C(=O)N[C@@](C)(CC(C)C)C(=O)N[C@@H](CCCCNC(C)=O)C(=O)N[C@@H](CC(N)=O)C(=O)N[C@@H](CC(N)=O)C(N)=O)NC(=O)[C@H](CCC(N)=O)NC3=O)c12` [compound 4]: the values for the half-life at 20 μM in data set [1], in data set [3] and in data set [4] were 2 h, 9 h and 6 h, respectively. The “SIF t½” value in data set [2] was 24 h. Further, the IC50 in data set [5] fell in the range of 1 to 10 nM.

As to `CC(=O)NCCCC[C@H](NC(=O)[C@](C)(CC(C)C)NC(=O)[C@H](Cc1ccc2ccccc2c1)NC(=O)[C@H](Cc1ccc(OCCN)cc1)NC(=O)[C@H]1NC(=O)[C@H](CCC(N)=O)NC(=O)[C@H](Cc2c[nH]c3ccc(F)cc23)NC(=O)[C@H]([C@@H](C)O)NC(=O)[C@H](CC(N)=O)NC(=O)[C@@H](NC(C)=O)C(C)(C)SSC1(C)C)C(=O)N[C@@H](CC(N)=O)C(=O)N[C@@H](CC(N)=O)C(N)=O` [compound 7], the “SIF t½” value in data set [2] was 24 h. Besides, the half-life at 20 μM in data set [3] was 12 h. In data set [5], this molecule displayed a concentration for half-maximal inhibition (IC50) of 10 to 100 nM.

Take `CC(=O)NCCCC[C@H](NC(=O)[C@](C)(CC(C)C)NC(=O)[C@H](Cc1ccc2ccccc2c1)NC(=O)[C@H](Cc1ccc(OCCN)cc1)NC(=O)[C@H]1NC(=O)[C@H](CCC(N)=O)NC(=O)[C@H](Cc2c[nH]c3cc(C)ccc23)NC(=O)[C@H]([C@@H](C)O)NC(=O)[C@H](CC(N)=O)NC(=O)[C@@H](NC(C)=O)C(C)(C)SSC1(C)C)C(=O)N[C@@H](CC(N)=O)C(=O)N[C@@H](CC(N)=O)C(N)=O` [compound 5]: the figures for the half-life at 20 μM in data set [1], in data set [3] and in data set [4] were 2 h, 12 h and 6 h, respectively. In addition, the “SIF t½” value in data set [2] was 24 h. Further, in data set [5], the IC50 lay within 1 to 10 nM.

On to `CC(=O)NCCCC[C@H](NC(=O)[C@](C)(CC(C)C)NC(=O)[C@H](Cc1c[nH]c2cc(F)ccc12)NC(=O)[C@H](Cc1ccc(OCCN)cc1)NC(=O)[C@H]1NC(=O)[C@H](CCC(N)=O)NC(=O)[C@H](Cc2c[nH]c3ccccc23)NC(=O)[C@H]([C@@H](C)O)NC(=O)[C@H](CC(N)=O)NC(=O)[C@@H](NC(C)=O)C(C)(C)SSC1(C)C)C(=O)N[C@@H](CC(N)=O)C(=O)N[C@@H](CC(N)=O)C(N)=O` [compound 14], for which the half-life in data set [2] was 9 h. Further, the “SGF t½” value in data set [3] is 24 h. This molecule came in with a 50% inhibitory concentration (IC50) in data set [5] of 10 to 100 nM.

With `CC(=O)NCCCC[C@H](NC(=O)[C@](C)(CCCN)NC(=O)[C@H](Cc1ccc2ccccc2c1)NC(=O)[C@H](Cc1ccc(OCCN)cc1)NC(=O)[C@H]1NC(=O)[C@H](CCC(N)=O)NC(=O)[C@H](Cc2c[nH]c3c(C)cccc23)NC(=O)[C@H]([C@@H](C)O)NC(=O)[C@H](CC(N)=O)NC(=O)[C@@H](NC(C)=O)C(C)(C)SSC1(C)C)C(=O)N[C@@H](CC(N)=O)C(=O)NCCC(N)=O` [compound 278], the half-life at 20 μM is 15 h in data set [1], above 24 h in data set [6] and above 24 h in data set [4]. Moreover, the IC50 in data set [7] is below 10 nM; in data set [5] (setting [8]), below 1 nM. In addition, in data set [2], the half-life is 19 h.

As to `CC(=O)NCCCC[C@H](NC(=O)[C@](C)(CC(C)C)NC(=O)[C@H](Cc1ccc2ccccc2c1)NC(=O)[C@H](Cc1ccc(OCCN)cc1)NC(=O)[C@H]1NC(=O)[C@H](CCC(N)=O)NC(=O)[C@H](Cc2c[nH]c3cc(Cl)ccc23)NC(=O)[C@H]([C@@H](C)O)NC(=O)[C@H](CC(N)=O)NC(=O)[C@@H](NC(C)=O)C(C)(C)SSC1(C)C)C(=O)N[C@@H](CC(N)=O)C(=O)N[C@@H](CC(N)=O)C(N)=O` [compound 2], in data set [2], the “SIF t½” value is 24 h. Besides, in data set [3], the half-life at 20 μM is 13 h. For the same molecule, in data set [5], the IC50 lay within 10 to 100 nM.

On to `CC(=O)NCCCC[C@@H]1NC(=O)[C@H](Cc2c[nH]c3c(C)cccc23)NC(=O)[C@H]([C@@H](C)O)NC(=O)[C@H](CC(N)=O)NC(=O)[C@@H](NC(C)=O)C(C)(C)SSC(C)(C)[C@@H](C(=O)N[C@@H](Cc2ccc(OCCN)cc2)C(=O)N[C@@H](Cc2ccc3ccccc3c2)C(=O)N[C@@](C)(CCCCN)C(=O)N[C@@H](CCC(=O)O)C(=O)NCCC(=O)NCCC(N)=O)NC1=O` [compound 273], for which the results for the half-life at 20 μM in data set [1], in data set [6] and in data set [4] were 12 h, above 24 h and above 24 h, respectively. The IC50 was below 10 nM in data set [7] and 1 to 10 nM in data set [5] (setting [8]). Moreover, the half-life in data set [2] was 8 h.

For orientation: IC50 means the concentration needed to halve the response being measured.
